Patent US12070457B2, “Substituted pyridines, pyridazines, pyrimidines, and 1,2,3-triazines as bruton's tyrosine kinase inhibitors” (HUTCHISON MEDIPHARMA LIMITED, priority 2020, dated 2024)
Read-outs that look alike come from different tables or passages of the source.

How the values were obtained:
BTK recombinant protein = BTK recombinant protein (Homo sapiens (Human), UniProt Q06187); assay: Determination of biochemical BTK (Z'-LYTE kinase assay)
Source text: Example 2 Determination of Biochemical BTK
1. Reagents and Materials
• BTK recombinant protein: Invitrogen, Cat #PV3363; • Z′-LYTE® kinase test kit-tyrosine 1 peptide: Invitrogen, Cat #PV3190; • 384-well low-flange black flat-bottomed polystyrene NBS microplate, no lid, no sterilization: Corning, Cat #3575; • 96-well polystyrene conical-bottomed MicroWell™ plate, sealed with a lid: Thermo Scientific™ Nunc™, Cat #277143; • Envision multi-mode plate reader: PerkinElmer; • Mixmate® shaker: Eppendorf; • TS-2102 shaking incubator: TENSUC; 2. Methods
Z′-LYTE® biochemical assay employs a fluorescence resonance energy transfer (FRET)-based, coupled-enzyme format and is based on the differential sensitivity of phosphorylated and non-phosphorylated peptides to proteolytic cleavage. Both ends of the short peptide substrate are labeled with two fluorescent groups to form a FRET paired combination. In the primary reaction (the Kinase Reaction), the kinase transfers the γ-phosphate of ATP to a single […] residue on the short peptide substrate. In the secondary reaction (the development reaction), the non-phosphorylated short peptides were recognized and cleaved by a site-specific protease (the development reagent). Phosphorylated short peptides can resist such cleavage. Cleavage of short peptides can disrupt the donor (such as coumarin) and receptor fluorophores (fluorescein) on the short peptides, while the phosphorylated short peptides can maintain FRET. The calculation method of the ratio is as follows, and the ratio of the respective emission signals generated by the donor fluorophores emitted (after excitation at 400 nm) to the receptors is calculated. Emission signal ratio=emitted light by coumarin (445 nm)/emitted light by fluorescein (520 nm). If the FRET short peptide is phosphorylated (such as no kinase inhibitor), the emitted light ratio will remain in a lower level. If the FRET short peptide is non-phosphorylated (such as kinase inhibitor), the emitted light ratio will be in a higher level. In this way, the inhibitory effects of different compound inhibitors on BTK kinase activity would be distinguished.
The experiment were carried out according to the instructions of the Z′-LYTE® kinase test kit-tyrosine 1 peptide. Reagent preparation: 1.33× kinase buffer: 5× kinase buffer was diluted with water to 1.33× kinase buffer; an enzyme solution: the kinase was dissolved in 1.33× kinase buffer with the final working concentration being 3.32 nM; a short peptide solution: a short peptide stock solution (1 mM dissolved in DMSO) was dissolved in 1.33× kinase buffer with the final working concentration being 2 μM; Z′-LYTE Tyr01 phosphorylated short peptide solution, 0.6 μl of stock solution (1 mM dissolved in DMSO) was dissolved in 149.4 μl of 1.33× kinase buffer; an ATP solution: an ATP stock solution (10 mM aqueous solution) was dissolved in 1.33× kinase buffer with the final working concentration being 32 μM; a color-developing solution: color-developing solution B was dissolved in color-developing buffer with the final working concentration being 1× color-developing solution; 4× compound preparation: the compound was diluted in 3-fold gradient concentration to finally obtain 4% DMSO aqueous solution containing different concentrations of the compound, with the final working concentration being 3000, 1000, 333.33, 111.11, 37.04, 12.35, 4.12, 1.37 nM, 8 concentration points in total.
Specific steps of the experiment: In the experiment, there were three control groups, each with 8 replicate wells, which were C1 100% inhibition group (no ATP), C2 0% inhibition group (with ATP), and C3 100% phosphorylation group, respectively. 2.5 μl of serially diluted compound was added to each well of a 384-well plate, with double replicate wells, and 4% DMSO solution was added to wells C1, C2, and C3. […]

[1] = Study on in vivo pharmacokinetics in mice; set-up: species or system mouse; conditions: for concentration at 8 h / concentration at 24 h: male, ICR, mouse
Source text: Example 6 Study on In Vivo Pharmacokinetics in Mice
Solutol HS15 was purchased from BASF, Germany, ethanol (anhydrous) was purchased from Nanjing Chemical Reagent Co., Ltd., physiological saline was purchased from Huayu (Wuxi) Pharmaceutical Co., Ltd., dimethyl sulfoxide (DMSO) and sodium carboxymethyl cellulose 800-1200 (CMC-Na) were purchased from Sinopharm Chemical Reagent Co., Ltd.
Preparation of ethanol/Solutol mixed solution (1:1, v/v): taking an appropriate amount of Solutol HS15 in a centrifuge tube and placing in a 37° C. water bath until dissolved, placing on the bench top to room temperature, taking 1 mL of Solutol in a centrifuge tube containing 1 mL of ethanol and mixing well to obtain the mixed solution.
Taking an appropriate amount of stock solution and placing in a blank centrifuge tube, adding an appropriate amount of ethanol/Solutol mixed solution prepared in advance, vortexing, then adding an appropriate amount of physiological saline, and mixing well until a transparent liquid.
3. Administration to Animals and Sample Collection:
Male ICR mice were purchased from Shanghai Lingchang Biotechnology Co., Ltd. 18 mice were randomly divided into intravenous administration group and intragastric administration group. The mice were fasted overnight before administration. The mice were withheld food but allowed to access water freely within 4 hours after administration, and allowed to freely access food and water after 4 hours. After anesthesia with isoflurane, blood was collected from the retroorbital venous plexus and placing in an centrifuge tube containing anticoagulant, and the centrifuge tube was stored in an box containing wet ice until the plasma was centrifuged.
The plasma samples were pre-treated and then analyzed by liquid chromatography-tandem mass spectrometry (LC-MS/MS), the instrument model was API5500. The analytical chromatographic column was Waters XSELECT HSS T3 C18 column (50×2.1 mm, 2.5 μm). In the mobile phases, deionized water containing 0.1% formic acid and 0.1% acetonitrile was used as the aqueous phase and acetonitrile containing 0.1% formic acid was used as the organic phase. The concentrations of the compound in the samples were determined as follows. Firstly, a standard curve was established, and the peak area ratios of the compound 19 to the internal standard in the standard curve were used as indexes. The theoretical concentrations of compound 19 and the peak area ratios of compound 19 to the internal standard were fitted with a quadratic regression equation to obtain the regression equation. The sample concentrations were calculated by measuring the peak area ratio of the compound of the test sample to the internal standard according to the standard curve.

BTK recombinant protein, sequence (Q06187 whole entry): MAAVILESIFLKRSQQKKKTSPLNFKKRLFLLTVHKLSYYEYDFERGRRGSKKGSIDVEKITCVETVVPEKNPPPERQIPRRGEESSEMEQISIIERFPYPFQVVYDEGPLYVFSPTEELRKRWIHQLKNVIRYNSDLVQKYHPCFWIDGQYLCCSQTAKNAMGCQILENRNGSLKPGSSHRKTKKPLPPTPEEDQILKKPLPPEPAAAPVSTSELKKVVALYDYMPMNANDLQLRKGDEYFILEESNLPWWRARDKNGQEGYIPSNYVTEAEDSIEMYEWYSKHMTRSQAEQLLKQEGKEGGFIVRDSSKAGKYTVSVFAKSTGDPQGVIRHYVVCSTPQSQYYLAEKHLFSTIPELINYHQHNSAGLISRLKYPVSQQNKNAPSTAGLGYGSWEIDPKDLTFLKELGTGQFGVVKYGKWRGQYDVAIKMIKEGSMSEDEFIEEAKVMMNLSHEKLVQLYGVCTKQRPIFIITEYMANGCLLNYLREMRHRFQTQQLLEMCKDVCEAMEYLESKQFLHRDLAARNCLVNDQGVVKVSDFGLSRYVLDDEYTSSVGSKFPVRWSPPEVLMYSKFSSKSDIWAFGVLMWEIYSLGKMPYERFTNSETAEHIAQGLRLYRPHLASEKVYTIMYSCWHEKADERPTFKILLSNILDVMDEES

C[C@H]1CN(C2COC2)CCN1c1ccc(Nc2cc(-c3ccnc(-n4ccn5c6c(cc5c4=O)CC(C)(C)C6)c3CO)cn(C)c2=O)nc1 [Compound 19]
IC50 (BTK recombinant protein): 8 nM | concentration at 8 h ([1]; oral, mice, intragastric, 10 mg/kg, plasma at 8 h, read-out: C8 h): 555 ng/mL | concentration at 24 h ([1]; oral, mice, intragastric, 10 mg/kg, plasma at 24 h, read-out: C24 h): 8.5 ng/mL | concentration at 8 h ([1]; plasma, 10 mg/kg, oral administration in mice, 8 h, read-out: plasma concentration at 8 h): 555 ng/mL | concentration at 24 h ([1]; plasma, 10 mg/kg, oral administration in mice, 24 h, lower limit of quantification 2.4 ng/mL, read-out: plasma concentration at 24 h): 8.5 ng/mL | T1/2 ([1]; mice, intragastric, 10 mg/kg): 2.7 h | plasma exposure (AUC0-∞) relative to reference GDC-0853 ([1]; oral administration in mice): about 1.7 times | plasma concentration at 8 h relative to GDC-0853 ([1]; oral administration in mice, 8 h): about 3.9 folds
